17 compounds from publication PMC6011181, “The Mechanism of Acetyl Transfer Catalyzed by Mycobacterium tuberculosis GlmU” (Biochemistry, 2018) can be followed below.

The target of one data set is His374 (UniProt position 374, GTKVPHLTYVG). Put plainly: kinetics. To be noted: 30 °C (stated for the acetyltransferase assay; not restated for the pH-rate studies); constant-ionic-strength three-component buffer (value not stated); 10 mM MgCl2; Vmax conditions (enzyme saturated with Ac-CoA and GlcN-1P), Mg2+ present.
Data set [1] concerns the target T1, GlmU (Mycobacterium tuberculosis, UniProt P9WMN3). Put plainly: biochemical. The class given is binding.
Data set [2] has as its target T1, GlmU. Nature of the data set: acetyltransferase dead-end inhibition, initial velocities versus GlcN-1P. To be noted: read-out: Kis. The data set is classed as biochemical.
Data set [3] deals with T1, GlmU. Nature of the data set: acetyltransferase inhibition assay. The class given is biochemical.
Data set [4] deals with T1, GlmU. The data set is classed as biochemical.
For data set [5], the target named is T1, GlmU. Put plainly: acetyltransferase dead-end inhibition, initial velocities versus Ac-CoA. The class given is biochemical. To be noted: read-out: Kis.
Data set [6] deals with N[C@H]1[C@@H](OP(=O)(O)OP(=O)(O)OC[C@H]2O[C@@H](n3ccc(=O)[nH]c3=O)[C@H](O)[C@@H]2O)O[C@H](CO)[C@@H](O)[C@@H]1O. Nature of the data set: purified protein. To be noted: co-substrate Ac-CoA saturating, pH 7.5, 30 °C, 10 mM MgCl2, acetyltransferase site.
Data set [7] concerns N[C@H]1[C@@H](OP(=O)(O)O)O[C@H](CO)[C@@H](O)[C@@H]1O. Put plainly: purified protein. To be noted: co-substrate Ac-CoA saturating, pH 7.5, 30 °C, 10 mM MgCl2.
The test system of data set [8] is CC(=O)N[C@H]1[C@@H](OP(=O)(O)O)O[C@H](CO)[C@@H](O)[C@@H]1O. Nature of the data set: purified protein. To be noted: co-substrate UTP saturating, pH 7.5, 30 °C, 10 mM MgCl2, uridylyltransferase site.
The test system of data set [9] is O=c1ccn([C@@H]2O[C@H](COP(=O)(O)OP(=O)(O)OP(=O)(O)O)[C@@H](O)[C@H]2O)c(=O)[nH]1. Put plainly: purified protein. To be noted: co-substrate GlcNAc-1P saturating, pH 7.5, 30 °C, 10 mM MgCl2, uridylyltransferase site.
Data set [10] relates to CC(=O)SCCNC(=O)CCNC(=O)[C@H](O)C(C)(C)COP(=O)(O)OP(=O)(O)OC[C@H]1O[C@@H](n2cnc3c(N)ncnc32)[C@H](O)[C@@H]1OP(=O)(O)O. Nature of the data set: purified protein. To be noted: co-substrate GlcN-1P saturating, pH 7.5, 30 °C, 10 mM MgCl2.
The target of data set [11] is T1, GlmU. Nature of the data set: biochemical. To be noted: read-out: Kis.
For data set [12], the target named is T1, GlmU. Nature of the data set: acetyltransferase DTP absorbance assay (CoA-SH release). The class given is biochemical.
[13] abbreviates: Km concentrations of Ac-CoA and GlcN-1P, pH 7.5, 30 °C, 10 mM MgCl2, acetyltransferase site, read-out: no inhibition at ≤10 mM.

What is called pKa is the negative logarithm of the acid dissociation constant. Low readings indicate a stronger acid or weaker base, high ones a weaker acid or stronger base. What is called Kd is the equilibrium constant for the complex coming apart. A word on the Km: it is the concentration of substrate that gives half-maximal velocity. The term kcat denotes the number of substrate molecules converted per active site and unit of time at saturation. The term kcat/Km denotes the turnover number divided by the Michaelis constant.

Read-outs that look alike come from different tables or passages of the source. Where only a bound is given, the exact number is not on record here.

T1 sequence (P9WMN3 whole entry, looked up): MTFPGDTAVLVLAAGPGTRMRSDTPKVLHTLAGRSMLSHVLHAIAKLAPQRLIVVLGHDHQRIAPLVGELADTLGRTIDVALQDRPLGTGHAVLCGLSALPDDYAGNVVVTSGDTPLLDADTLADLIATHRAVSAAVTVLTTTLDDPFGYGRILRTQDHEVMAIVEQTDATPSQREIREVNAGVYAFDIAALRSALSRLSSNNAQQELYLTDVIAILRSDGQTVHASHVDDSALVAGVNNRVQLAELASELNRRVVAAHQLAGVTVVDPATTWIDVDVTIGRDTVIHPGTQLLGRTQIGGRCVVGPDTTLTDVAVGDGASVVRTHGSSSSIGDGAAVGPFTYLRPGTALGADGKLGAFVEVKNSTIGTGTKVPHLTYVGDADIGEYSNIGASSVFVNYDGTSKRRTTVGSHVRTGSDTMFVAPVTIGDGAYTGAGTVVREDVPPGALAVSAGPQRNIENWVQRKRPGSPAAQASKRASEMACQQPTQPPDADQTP

“Bifunctional N-acetyltransferase/uridylyltransferase GlmU (Mycobacterium tuberculosis H37Rv)”: the pKa in the data set with His374 was found to be 6.7 ± 0.1.
Turning to `O=P(O)(O)O[C@H]1O[C@H](CO)[C@@H](O)[C@H](O)[C@H]1O` [Glc-1P], the Kd on GlmU [1] (read-out: Kd) was 1700 ± 400 µM. Also, on GlmU [2], the Ki was determined as 4100 ± 600 µM. Besides, the IC50 at GlmU [3] (read-out: IC50 (mM) ^b, ^c) was 5 ± 0.65 mM.
For `CCC(=O)SCCNC(=O)CCNC(=O)[C@H](O)C(C)(C)COP(=O)(O)OP(=O)(O)OC[C@H]1O[C@@H](n2cnc3c(N)ncnc32)[C@H](O)[C@@H]1OP(=O)(O)O` [Pro-CoA], the Kd at GlmU [1] (read-out: Kd (μM) ^b) came out at 500 ± 100 µM.
For `N[C@H]1[C@@H](OP(=O)(O)O)O[C@H](CO)[C@@H](O)[C@@H]1O` [GlcN-1P], the Kd result on GlmU [4] is “in the presence of high concentrations of the second substrate, the Kd values for the complex”.
Take `CC(=O)N[C@@H]1C(O)O[C@H](CO)[C@@H](O)[C@@H]1O` (stereo partly shown) [N-acetyl-mannosamine]: at GlmU [3] (setting [13]), the IC50 was more than 10 mM.
In the case of `O=P(O)(O)OC[C@H]1OC(O)[C@H](O)[C@@H](O)[C@@H]1O` (stereo partly shown) [glucose 6-phosphate], the IC50 on GlmU [3] (setting [13]) was more than 10 mM.
As for `N[C@H]1C(O)O[C@H](COP(=O)(O)O)[C@@H](O)[C@@H]1O` (stereo partly shown) [GlcN-6P], the IC50 at GlmU [3] (Km concentrations of Ac-CoA and GlcN-1P, pH 7.5, 30 °C, 10 mM MgCl2, read-out: IC50 (mM) ^b, ^c) came to 10 ± 0.89 mM.
As to `CC(C)(COP(=O)(O)OP(=O)(O)OC[C@H]1O[C@@H](n2cnc3c(N)ncnc32)[C@H](O)[C@@H]1OP(=O)(O)O)[C@@H](O)C(=O)NCCC(=O)NCCSC(=O)CC(=O)O` [Mlo-CoA], at GlmU [3] (read-out: IC50 (mM) ^b, ^c), the IC50 turned out to be 2 ± 0.59 mM.
In the case of `O=P(O)(O)OC[C@H]1OC(O)[C@@H](O)[C@@H](O)[C@@H]1O` (stereo partly shown) [mannose 6-phosphate], the IC50 on GlmU [3] (setting [13]) was more than 10 mM.
`CCCC(=O)SCCNC(=O)CCNC(=O)[C@H](O)C(C)(C)COP(=O)(O)OP(=O)(O)OC[C@H]1O[C@@H](n2cnc3c(N)ncnc32)[C@H](O)[C@@H]1OP(=O)(O)O` [Bu-CoA]: the Ki at GlmU [5] turned out to be 350 ± 30 µM. For the same compound, the Kd at GlmU [1] (read-out: Kd (mM) ^c) is 3800 ± 800 µM. In addition, the IC50 at GlmU [3] (read-out: IC50 (mM) ^b, ^c) came out at 1 ± 0.03 mM.
Regarding `CC(=O)N[C@H]1C(O)O[C@H](CO)[C@H](O)[C@@H]1O` (stereo partly shown) [N-acetyl-galactosamine], at GlmU [3] (setting [13]), the IC50 was more than 10 mM.
For the compound `CC(=O)SCCNC(=O)CCNC(=O)[C@H](O)C(C)(C)COP(=O)(O)OP(=O)(O)OC[C@H]1O[C@@H](n2cnc3c(N)ncnc32)[C@H](O)[C@@H]1OP(=O)(O)O` [Ac-CoA], the Kd on GlmU [1] (read-out: Kd (μM) ^b) came out at 250 ± 25 µM.
Take GlmU (Mycobacterium tuberculosis H37Rv): the Km came to 9700 ± 600 µM in data set [6]; 290 ± 31 µM in data set [7]; 30 ± 5 µM in [8]; 8 ± 0.8 µM in data set [9]; 250 ± 8 µM in data set [10]. The kcat in data set [6] came to 2.04 ± 0.06 s⁻¹; in [9], 120 ± 3 s⁻¹. Further, the kcat/Km in data set [6] came to 220 ± 170 M⁻¹ s⁻¹; in data set [9] it was 1.5e+07 ± 3.8e+06 M⁻¹ s⁻¹.
On to `O=P(O)(O)O[C@H]1O[C@H](CO)[C@@H](O)[C@H](O)[C@@H]1O` [mannose 1-phosphate], for which the IC50 on GlmU [3] (read-out: no inhibition at ≤10 mM) was more than 10 mM.
As to `CC(C)C(=O)SCCNC(=O)CCNC(=O)[C@H](O)C(C)(C)COP(=O)(O)OP(=O)(O)OC[C@H]1O[C@@H](n2cnc3c(N)ncnc32)[C@H](O)[C@@H]1OP(=O)(O)O` [IsoBu-CoA], the IC50 at GlmU [3] (read-out: IC50 (mM) ^b, ^c) came to 2 ± 0.21 mM.
In the case of `CC(C)(COP(=O)(O)OP(=O)(O)OC[C@H]1O[C@@H](n2cnc3c(N)ncnc32)[C@H](O)[C@@H]1OP(=O)(O)O)[C@@H](O)C(=O)NCCC(=O)NCCS` [CoA-SH], the Kd on GlmU [1] (read-out: Kd (mM) ^c) amounted to 700 ± 130 µM. The Ki on GlmU [11] amounted to 150 ± 15 µM. For the same compound, at GlmU [12], the IC50 was found to be 0.3 ± 0.01 mM.
For the compound `C/C=C/C(=O)SCCNC(=O)CCNC(=O)[C@H](O)C(C)(C)COP(=O)(O)OP(=O)(O)OC[C@H]1O[C@@H](n2cnc3c(N)ncnc32)[C@H](O)[C@@H]1OP(=O)(O)O` [Cro-CoA], the IC50 on GlmU [3] (read-out: IC50 (mM) ^b, ^c) is 1 ± 0.15 mM.
